Melting point and EC50 data for 27 compounds are collected here from US9487510B2, “Substituted heterocyclic acetamides as kappa opioid receptor (KOR) agonists” (Dr. Reddy's Laboratories Ltd., priority 2012, dated 2016).

For one data set, the target named is human KOR receptor (Homo sapiens, UniProt P41145). Put plainly: IP-One HTRF assay, potency of KOR agonists, dose-response in transiently transfected COS-7 cells. Format: cell-based. (In TR-FRET formats the signal depends on donor and acceptor labels being close together.)
human KOR receptor, sequence (P41145 whole entry): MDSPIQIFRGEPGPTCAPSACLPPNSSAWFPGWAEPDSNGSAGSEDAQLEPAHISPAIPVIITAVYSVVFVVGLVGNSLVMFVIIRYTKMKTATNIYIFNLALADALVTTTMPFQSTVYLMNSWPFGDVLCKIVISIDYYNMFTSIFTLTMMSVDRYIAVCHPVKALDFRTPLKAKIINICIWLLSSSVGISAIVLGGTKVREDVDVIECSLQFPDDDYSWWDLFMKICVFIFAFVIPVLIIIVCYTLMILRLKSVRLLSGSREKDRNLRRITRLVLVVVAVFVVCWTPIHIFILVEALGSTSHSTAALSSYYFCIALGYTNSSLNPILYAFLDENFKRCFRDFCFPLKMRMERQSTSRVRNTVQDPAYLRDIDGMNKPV

One may read the melting point as the temperature of the solid-liquid transition. `O=C(Cc1ccc2ccc(=O)[nH]c2c1)N[C@H](CN1CC[C@H](O)C1)c1ccccc1`: the melting point was in the range of 174 to 176 °C.

`O=C1Cc2ccc(CC(=O)N[C@H](CN3CC[C@H](O)C3)c3ccccc3)cc2N1` had a melting point of 207 to 209 °C.

As usually defined, the EC50 is the concentration giving half of the maximal effect. The low end stands for greater potency, the high end for weaker potency. In turn, `Cn1c(=O)oc2ccc(CC(=O)N[C@H](CN3CCC(O)C3)c3ccccc3)cc21` (stereo in doubt) [Example 45, N-((S)-2-((S)-3-hydroxypyrrolidin-1-yl)-1-phenylethyl)-2-(3-methyl-2-oxo-2,3-dihydrobenzo[d]oxazol-5-yl)acetamide] had a melting point of 105 to 106 °C. Also, the EC50 at human KOR receptor is at most 50 nM.

`O=C(Cc1ccc2[nH]c(=O)ccc2c1)N[C@H](CN1CCC(O)C1)c1ccccc1` (stereo in doubt) [Example 51, N-((S)-2-((R)-3-hydroxypyrrolidin-1-yl)-1-phenylethyl)-2-(2-oxo-1,2-dihydroquinolin-6-yl)acetamide] came in with a melting point of 196 to 198 °C. The same compound came in with a concentration giving a half-maximal response (EC50) on human KOR receptor of 101 to 1000 nM.

On to `CN(C(=O)Cc1ccc2oc(=O)[nH]c2c1)[C@H](CN1CCC(O)C1)c1cccc(OCC(=O)OC(C)(C)C)c1` (stereo in doubt) [Example 77, Tert-butyl 2-(3-((S)-2-((R)-3-hydroxypyrrolidin-1-yl)-1-(N-methyl-2-(2-oxo-2,3-dihydrobenzo[d]oxazol-5-yl)acetamido)ethyl)phenoxy)acetate], for which the melting point is 124 to 125 °C. This compound also came in with an EC50 on human KOR receptor of at most 50 nM.

In the case of `CN(C(=O)Cc1ccc2oc(=O)[nH]c2c1)C(CN1CCCC1)c1cccc(OCC(=O)O)c1` (stereo in doubt) [Example 90, (R)-2-(3-(1-(N-methyl-2-(2-oxo-2,3-dihydrobenzo[d]oxazol-5-yl)acetamido)-2-(pyrrolidin-1-yl)ethyl)phenoxy)acetic acid], the melting point lay in the range of 227 to 229 °C. The compound also had an EC50 on human KOR receptor of 51 to 100 nM.

Compound `CN(C(=O)Cc1ccc2oc(=O)[nH]c2c1)[C@H](CN1CCC(O)C1)c1cccc(OCC(=O)O)c1.Cl` (stereo in doubt) [Example 96, 2-(3-((S)-2-((R)-3-hydroxypyrrolidin-1-yl)-1-(N-methyl-2-(2-oxo-2,3-dihydrobenzo[d]oxazol-5-yl)acetamido)ethyl)phenoxy)acetic acid] returned a melting point of 95 to 96 °C. At human KOR receptor, this compound showed an EC50 of at most 50 nM.

`CN(C(=O)Cc1ccc2oc(=O)[nH]c2c1)[C@H](CN1CCC(O)C1)c1cccc(-c2nn[nH]n2)c1` (stereo in doubt) [Example 99, N-((S)-1-(3-(2H-tetrazol-5-yl)phenyl)-2-((S)-3-hydroxypyrrolidin-1-yl)ethyl)-N-methyl-2-(2-oxo-2,3-dihydrobenzo[d]oxazol-5-yl)acetamide]: the melting point is 228 to 230 °C. At human KOR receptor, the EC50 was at most 50 nM.

The compound `O=C(Cc1ccc2oc(=O)n(Cc3cccc(-c4nn[nH]n4)c3)c2c1)N[C@H](CN1CCC(O)C1)c1ccccc1` (stereo in doubt) [Example 102, 2-(3-(3-(2H-tetrazol-5-yl)benzyl)-2-oxo-2,3-dihydrobenzo[d]oxazol-5-yl)-N-((S)-2-((S)-3-hydroxypyrrolidin-1-yl)-1-phenylethyl)acetamide] registered a melting point of 235 to 237 °C. The compound further displayed an EC50 at human KOR receptor of at most 50 nM.

Take `CN(C(=O)Cc1ccc2oc(=O)n(Cc3cccc(-c4nn[nH]n4)c3)c2c1)[C@H](CN1CCC(O)C1)c1ccccc1` (stereo in doubt) [Example 103, 2-(3-(3-(2H-tetrazol-5-yl)benzyl)-2-oxo-2,3-dihydrobenzo[d]oxazol-5-yl)-N-((S)-2-((S)-3-hydroxypyrrolidin-1-yl)-1-phenylethyl)-N-methylacetamide]: the melting point lay within 123 to 125 °C. This compound yielded an EC50 at human KOR receptor of at most 50 nM.

`CN(C(=O)Cc1ccc2oc(=O)n(Cc3ccc(-c4nnn[nH]4)cc3)c2c1)[C@H](CN1CCC(O)C1)c1ccccc1` (stereo in doubt) [Example 104, 2-(3-(4-(1H-tetrazol-5-yl)benzyl)-2-oxo-2,3-dihydrobenzo[d]oxazol-5-yl)-N-((S)-2-((S)-3-hydroxypyrrolidin-1-yl)-1-phenylethyl)-N-methylacetamide]: the melting point was in the range of 218 to 220 °C. The compound also registered an EC50 on human KOR receptor of at most 50 nM.

For `CN(C(=O)Cc1ccc2oc(=O)n(C)c2c1)[C@H](CN1CCC(O)C1)c1cccc(-c2nn[nH]n2)c1` (stereo in doubt) [Example 107, N-((S)-1-(3-(2H-tetrazol-5-yl)phenyl)-2-((S)-3-hydroxypyrrolidin-1-yl)ethyl)-N-methyl-2-(3-methyl-2-oxo-2,3-dihydrobenzo[d]oxazol-5-yl)acetamide], the melting point lay within 130 to 132 °C. This compound also came in with an EC50 at human KOR receptor of at most 50 nM.

`CCc1nc(-c2cccc([C@@H](CN3CC[C@H](O)C3)N(C)C(=O)Cc3ccc4c(c3)NC(=O)C4)c2)no1` [Example 214, N-((S)-1-(3-(5-ethyl-1,2,4-oxadiazol-3-yl)phenyl)-2-((S)-3-hydroxypyrrolidin-1-yl)ethyl)-N-methyl-2-(2-oxoindolin-6-yl)acetamide] had an EC50 on human KOR receptor of at most 50 nM.

On human KOR receptor, `Cc1cnc(-c2cccc([C@@H](CN3CC[C@H](O)C3)N(C)C(=O)Cc3ccc4c(c3)NC(=O)C4)c2)s1` [Example 215, N-((S)-2-((S)-3-hydroxypyrrolidin-1-yl)-1-(3-(5-methylthiazol-2-yl)phenyl)ethyl)-N-methyl-2-(2-oxoindolin-6-yl)acetamide] displayed an EC50 of at most 50 nM.

In the case of `CN(C(=O)Cc1ccc2c(c1)NC(=O)C2)[C@H](CN1CC[C@H](O)C1)c1cccc(-c2cncs2)c1` [Example 216, N-((S)-2-((S)-3-hydroxypyrrolidin-1-yl)-1-(3-(thiazol-5-yl)phenyl)ethyl)-N-methyl-2-(2-oxoindolin-6-yl)acetamide], the EC50 at human KOR receptor is at most 50 nM.

`CN(C(=O)Cc1ccc2c(c1)NC(=O)C2)[C@H](CN1CC[C@H](O)C1)c1cccc(-c2cscn2)c1` [Example 217, N-((S)-2-((S)-3-hydroxypyrrolidin-1-yl)-1-(3-(thiazol-4-yl)phenyl)ethyl)-N-methyl-2-(2-oxoindolin-6-yl)acetamide] registered an EC50 at human KOR receptor of at most 50 nM.

Take `Cc1csc(-c2cccc([C@@H](CN3CC[C@H](O)C3)N(C)C(=O)Cc3ccc4c(c3)NC(=O)C4)c2)n1` [Example 218, N-((S)-2-((S)-3-hydroxypyrrolidin-1-yl)-1-(3-(4-methylthiazol-2-yl)phenyl)ethyl)-N-methyl-2-(2-oxoindolin-6-yl)acetamide]: the EC50 at human KOR receptor is at most 50 nM.

Compound `Cc1ncc(-c2cccc([C@@H](CN3CC[C@H](O)C3)N(C)C(=O)Cc3ccc4c(c3)NC(=O)C4)c2)s1` [Example 219, N-((S)-2-((S)-3-hydroxypyrrolidin-1-yl)-1-(3-(2-methylthiazol-5-yl)phenyl)ethyl)-N-methyl-2-(2-oxoindolin-6-yl)acetamide] yielded an EC50 at human KOR receptor of at most 50 nM.

`Cc1nc(-c2cccc([C@@H](CN3CC[C@H](O)C3)N(C)C(=O)Cc3ccc4c(c3)NC(=O)C4)c2)cs1` [Example 220, N-((S)-2-((S)-3-hydroxypyrrolidin-1-yl)-1-(3-(2-methylthiazol-4-yl)phenyl)ethyl)-N-methyl-2-(2-oxoindolin-6-yl)acetamide] had an EC50 on human KOR receptor of at most 50 nM.

`Cc1nnc(-c2cccc([C@@H](CN3CC[C@H](O)C3)N(C)C(=O)Cc3ccc4c(c3)NC(=O)C4)c2)s1` [Example 221, N-((S)-2-((S)-3-hydroxypyrrolidin-1-yl)-1-(3-(5-methyl-1,3,4-thiadiazol-2-yl)phenyl)ethyl)-N-methyl-2-(2-oxoindolin-6-yl)acetamide]: the EC50 at human KOR receptor is at most 50 nM.

For the compound `CN(C(=O)Cc1ccc2c(c1)NC(=O)C2)[C@H](CN1CC[C@H](O)C1)c1cccc(-c2cncn2C)c1` [Example 222, N-((S)-2-((S)-3-hydroxypyrrolidin-1-yl)-1-(3-(1-methyl-1H-imidazol-5-yl)phenyl)ethyl)-N-methyl-2-(2-oxoindolin-6-yl)acetamide], the EC50 on human KOR receptor was at most 50 nM.

`CN(C(=O)Cc1ccc2c(c1)NC(=O)C2)[C@H](CN1CC[C@H](O)C1)c1cccc(-c2nnco2)c1` [Example 223, N-((S)-1-(3-(1,3,4-oxadiazol-2-yl)phenyl)-2-((S)-3-hydroxypyrrolidin-1-yl)ethyl)-N-methyl-2-(2-oxoindolin-6-yl)acetamide] registered an EC50 on human KOR receptor of at most 50 nM.

At human KOR receptor, `Cc1nnc(-c2cccc([C@@H](CN3CC[C@H](O)C3)N(C)C(=O)Cc3ccc4c(c3)NC(=O)C4)c2)o1` [Example 224, N-((S)-2-((S)-3-hydroxypyrrolidin-1-yl)-1-(3-(5-methyl-1,3,4-oxadiazol-2-yl)phenyl)ethyl)-N-methyl-2-(2-oxoindolin-6-yl)acetamide] returned an EC50 of at most 50 nM.

With `CN(C(=O)Cc1ccc2c(c1)NC(=O)C2)[C@H](CN1CC[C@H](O)C1)c1cccc(-c2cn(C)cn2)c1` [Example 225, N-((S)-2-((S)-3-hydroxypyrrolidin-1-yl)-1-(3-(1-methyl-1H-imidazol-4-yl)phenyl)ethyl)-N-methyl-2-(2-oxoindolin-6-yl)acetamide], on human KOR receptor, the EC50 is at most 50 nM.

On human KOR receptor, `CN(C(=O)Cc1ccc2c(c1)NC(=O)C2)[C@H](CN1CC[C@H](O)C1)c1cccc(-c2nccn2CC2CC2)c1` [Example 226, N-((S)-1-(3-(1-(cyclopropylmethyl)-1H-imidazol-2-yl)phenyl)-2-((S)-3-hydroxypyrrolidin-1-yl)ethyl)-N-methyl-2-(2-oxoindolin-6-yl)acetamide] registered an EC50 of at most 50 nM.

Turning to `Cc1noc(-c2cccc([C@@H](CN3CC[C@H](O)C3)N(C)C(=O)Cc3ccc4c(c3)NC(=O)C4)c2)n1` [Example 227, N-((S)-2-((S)-3-hydroxypyrrolidin-1-yl)-1-(3-(3-methyl-1,2,4-oxadiazol-5-yl)phenyl)ethyl)-N-methyl-2-(2-oxoindolin-6-yl)acetamide], the EC50 at human KOR receptor is at most 50 nM.

In the case of `CN(C(=O)Cc1ccc2sc(=O)[nH]c2c1)[C@H](CN1CC[C@H](O)C1)c1cccc(C(=O)NCC(F)(F)F)c1` [Example 228, 3-((S)-2-((S)-3-hydroxypyrrolidin-1-yl)-1-(N-methyl-2-(2-oxo-2,3-dihydrobenzo[d]thiazol-5-yl)acetamido)ethyl)-N-(2,2,2-trifluoroethyl)benzamide], the EC50 at human KOR receptor was at most 50 nM.
